What was measured:
[1] = system: GFP-TcTex1 trap transfected Cos1/Cos7 cells; test: Organelle dispersion and microtubule array in cells expressing the TcTex1 trap; type: cell-based; parameters: dispersion of the three organelle types (early endosomes, lysosomes, Golgi): dose or concentration left out as unconfirmed
Excerpt: In vivo effect of Dynein LC and IC Traps. As tests for LC function, we evaluated the effects of the traps on early endosome, lysosome, and Golgi distribution, as well as mitotic progression. First, we fused green fluorescent protein (GFP) to the N-terminus of both FKBP-traps to identify transfected cells. Next, we transfected Cos1, Cos7, or HeLa cells with either trap or a GFP-FKBP control and labeled endosomes, lysosomes and Golgi with EEA1, LAMP2 and GM130 markers, respectively (FIGS. 12A-12C). […] The percentage of cells expressing the GFPLC8 or GFP-TcTex1 trap with dispersed endosomes was 14.7±1.5% and 13.3±1.5%, respectively, as compared to 11.7±3.5% and 10.3±3.5% for non-transfected cells and cells that expressed a GFP-FKBP control, respectively. […] After 8 h of treatment with AP20187, we observed greater than 50% dispersion of the three organelle types for each trap.
To ensure the AP20187 concentration was not limiting, we followed the LC8-trap-induced dispersion of lysosomes as a function of AP20187 concentration after 8 h. […] For the TcTex1-trap, we observed efficient endosome, lysosome and Golgi dispersion at AP20187 concentrations of 1 μM or greater.
Kinetic Analysis Separates Dynein Functions. A major purpose for developing these traps is to provide immediate inhibition of protein function and follow the cellular response from this perturbation to gain new insight. Thus, we monitored the fraction of cells with dispersed organelles as a function of time. After induction of dimerization by AP20187, effects on both early endosome and lysosome distribution were detectable at 10 min, and leveled off at ˜2 h (FIGS. 14A-14B). […] The most rapid effect was observed on lysosomes in cells expressing the LC8 trap. In striking contrast, Golgi dispersal using either trap occurred over a much longer time-course, requiring 8 h after induction of dimerization to reach similar levels of dispersion as for endosomes and lysosomes. Twenty-four hours after addition of AP20187, the percentage of cells with dispersed Golgi reached levels greater than 85%.

[2] = system: GFP IC trap transfected Cos1 cells; test: Organelle dispersion and microtubule array in cells expressing the IC trap; type: cell-based
Procedure: FIGS. 13A-13B. FIGS. 13A-13B depict that induction of IC traps leads to Endosome (FIG. 13A) and Golgi apparatus (FIG. 13B) dispersion. Cos1 cells were transfected with the GFP IC trap (upper rights panels of FIGS. 13A and 13B) for 24 h and then treated with AP20187 for 1 h. The cells were stained with DAPI for nuclei (upper left panels of FIGS. 13 A and 13B) and EEA1 for endosomes (FIG. 13A, lower left panel)) or GM130 marker for Golgi bodies (FIG. 13B, lower left panel). Note the endosomes and Golgi apparatus are dispersed (marked “d”) within 10 min and 1 h, respectively. Cells not containing the IC trap all show compact endosomes and Golgi bodies (marked “c”). Scale bar is 5 μm.
As a test for effects on cytoplasmic dynein functions that are distinct from vesicular transport, we monitored mitotic behavior in cells expressing either the LC8- or TcTex1-traps. We observed little effect on either mitotic index or the fraction of mitotic cells at discrete mitotic stages with either trap (data not shown). […] Finally, similar studies were carried out using the IC trap. As before, we observed little or no change in the dispersion of endosomes and Golgi apparatus before AP20187 treatment. Induction of dimerization through the addition of AP20187 (1 μM) produced immediate changes in both organelles. After 4 h, 81+4% of cells contained dispersed endosomes and 68+3% of cells contained dispersed Golgi. […] The precise reason for this difference is not clear; however, currently, we attribute this to a change in the cytoskeleton, but this must still be verified. We are also in the process of measuring the effect of sequestering the dynein IC on mitotic behavior.
Microtubule architecture. Known methods of inhibiting cytoplasmic dynein, such as expression of dynactin polypeptides or RNAi against the dynein regulatory factors NudEL and ZW10, cause disorganization of the radial microtubule (MT) network in cultured mammalian cells 52-54. […] This is consistent with previous studies where overexpressing a dimeric form of the IC trap (e.g., CC1 of p150glued) also disrupts of the MT array).

[3] = after induction of dimerization
[4] = Cos1 cells, after AP20187 addition

## CCC(C(=O)N1CCCCC1C(=O)OC(CCc1ccc(OC)c(OC)c1)c1cccc(OCC(=O)NCC(CNC(=O)COc2cccc(C(CCc3ccc(OC)c(OC)c3)OC(=O)C3CCCCN3C(=O)C(CC)c3cc(OC)c(OC)c(OC)c3)c2)CN(C)C)c1)c1cc(OC)c(OC)c(OC)c1 (stereo not drawn) [AP, AP20187]
[1]
  AP20187 concentrations giving efficient endosome, lysosome and Golgi dispersion: ≥ 1 µM
[1]; 8 h of treatment
  dispersion of the three organelle types (early endosomes, lysosomes, Golgi): greater than 50%
[1]; 8 h post-induction
  microtubule radial array / cytoskeleton changes: No significant changes
[1]; [3]
  time at which effects on early endosome and lysosome distribution leveled off: ~2 h
  time at which effects on early endosome and lysosome distribution were detectable: 10 min
  time required for Golgi dispersal to reach similar levels as endosomes and lysosomes: 8 h
[1]; twenty-four hours after addition
  percentage of cells with dispersed Golgi: greater than 85%
[2]; AP20187 1 μM, after 4 h
  cells containing dispersed Golgi: 68+3%
  cells containing dispersed endosomes: 81+4%
[2]; AP20187-induced dimerization of the IC trap
  microtubule (MT) radial array: significantly disrupted
[2]; [4]
  time within which Golgi apparatus is dispersed: ≤ 1 h
  time within which endosomes are dispersed: ≤ 10 min
